Experimental findings from patent publication US9119858B2, “Compositions and methods for treating or preventing anthracycline induced cardiotoxicity” (Genesys Research Institute, priority 2012, dated 2015) are described below.

Data set [1] relates to doxorubicin treated mice. The data set is described as follows: Hemodynamic measurements (dP/dtmax, dP/dtmin) in doxorubicin and doxorubicin+lapatinib treated mice. Particulars: FIG. 4.
Method: (§2) Female FVB/n mice between 10 and 12 weeks old were treated with doxorubicin (2 mg/kg) by intraperitoneal injection (i.p.) twice a week for 7 weeks. […] After completion of the doxorubicin treatment cycle, the mice were subsequently treated with various doses of lapatinib (25, 50, and 100 mg/kg, given by oral gavage, daily) or with vehicle control.
(§3) Cardiac function of the doxorubicin and doxorubicin+lapatinib treated mice was evaluated by echocardiography.
In data set [2] the test system is doxorubicin treated mice.
In data set [3] the test system is doxorubicin treated mice. Description: Echocardiography of doxorubicin and doxorubicin+lapatinib treated mice. The settings on record: FIG. 3.
Method: as §2, §3
Data set [4] relates to doxorubicin injured mice. Description: Cardiac output by hemodynamic measurements in doxorubicin injured mice treated with Lapatinib or Rapamycin. The data set is classed as in vivo. The method, then: (§1) After the completion of doxorubicin treatment, mice were subsequently treated with either Lapatinib alone (100 mg/kg, oral gavage, daily) or Rapamycin alone (6 mg/kg, i.p., daily). Survival was monitored. Cardiac function was assessed by hemodynamic measurements.

Data set [5] has as its system doxorubicin injured mice. The settings on record: ten weeks after initiation of doxorubicin treatment. The method, then: as §1
Data set [6] deals with doxorubicin+BEZ235 treated mice. The data set is described as follows: Echocardiography and heart/lung weight ratios in mice co-treated with doxorubicin, BEZ235 and lapatinib. Particulars: lapatinib co-treatment of doxorubicin+BEZ235 treated mice; FIG. 6.
Method: FVB/n female mice were treated with doxorubicin (2 mg/kg, i.p.) twice a week, PI3 kinase-mTOR inhibitor BEZ235 (35-50 mg/kg, oral, daily) and lapatinib (25, 50 or 100 mg/kg, oral, daily). Cardiac function was monitored by echocardiography.
Setting [7] is: doxorubicin treated vs. control mice.
Setting [8] is: nine weeks after initiation of doxorubicin treatment, doxorubicin treated versus control mice.
The mark [9] stands for this setting: doxorubicin+lapatinib treated vs control mice.
The mark [10] stands for this setting: three weeks after initiation of lapatinib treatment, doxorubicin+lapatinib vs doxorubicin treated mice.

Molecules are shown by their SMILES. Like-named read-outs stand apart in the source and are kept apart here.

Consider `COc1cccc2c1C(=O)c1c(O)c3c(c(O)c1C2=O)C[C@@](O)(C(=O)CO)C[C@@H]3O[C@H]1C[C@H](N)[C@H](O)[C@H](C)O1` [doxorubicin], for which the dP/dtmax result in the data set with doxorubicin treated mice [1] (setting [7]) is recorded as “significantly decreased”. Besides, the dP/dtmin result in the data set with doxorubicin treated mice [1] (setting [7]) is “significantly decreased”. Besides, the survival in the data set on doxorubicin treated mice [2] (64 days after initiation of doxorubicin treatment, doxorubicin 2 mg/kg i.p. twice a week for 7 weeks, then vehicle control, female FVB/n mice) is listed as 68%; in the data set on doxorubicin treated mice [2] (70 days after initiation of doxorubicin treatment, doxorubicin 2 mg/kg i.p. twice a week for 7 weeks, then vehicle control), 34%; in the data set on doxorubicin injured mice [5] (Solvent treated doxorubicin injured mice (doxorubicin 2 mg/kg i.p. twice a week for 7 weeks)) it was 43%. In addition, in the data set with doxorubicin treated mice [3] (setting [8]), the EF % entry is recorded as “decreased”. Moreover, in the data set on doxorubicin treated mice [3] (setting [8]), the ESV entry was “significantly increased”. Further, the cardiac output entry with doxorubicin injured mice [4] (Solvent treated doxorubicin injured mice vs. non-treated control mice, ten weeks) is listed as “significantly decreased”.

With `CO[C@H]1C[C@@H]2CC[C@@H](C)[C@@](O)(O2)C(=O)C(=O)N2CCCC[C@H]2C(=O)O[C@H]([C@H](C)C[C@@H]2CC[C@@H](O)[C@H](OC)C2)CC(=O)[C@H](C)/C=C(\C)[C@@H](O)[C@@H](OC)C(=O)[C@H](C)C[C@H](C)/C=C/C=C/C=C/1C` [Rapamycin], in the data set on doxorubicin injured mice [5] (Rapamycin 6 mg/kg i.p. daily after doxorubicin), the survival is 63%.

On to `CS(=O)(=O)CCNCc1ccc(-c2ccc3ncnc(Nc4ccc(OCc5cccc(F)c5)c(Cl)c4)c3c2)o1` [lapatinib, N-[3-chloro-4-[(3-fluorophenyl)methoxy]phenyl]-6-[5-[(2-methylsulfonylethylamino)methyl]-2-furyl]quinazolin-4-amine], for which, in the data set on doxorubicin treated mice [1] (setting [9]), the dP/dtmax result is given as “not different” and the dP/dtmin result was “not different”. The survival in the data set on doxorubicin treated mice [2] (64 days after initiation of doxorubicin treatment, lapatinib 25 mg/kg oral gavage daily after the doxorubicin cycle) was 100%. The compound further came in with a survival with doxorubicin treated mice [2] (64 days after initiation of doxorubicin treatment, lapatinib 50 mg/kg oral gavage daily after the doxorubicin cycle) of 83%. Besides, the survival in the data set with doxorubicin treated mice [2] (64 days after initiation of doxorubicin treatment, lapatinib 100 mg/kg oral gavage daily after the doxorubicin cycle) was 71%. The survival in the data set with doxorubicin treated mice [2] (70 days after initiation of doxorubicin treatment, lapatinib 100 mg/kg oral gavage daily after the doxorubicin cycle) was 55%. Further, the “survival of doxorubicin treated mice (FIG. 1)” value in the data set on doxorubicin treated mice [2] (lapatinib 25, 50 and 100 mg/kg oral gavage daily vs vehicle control) is “improved survival”. In the data set with doxorubicin treated mice [3] (setting [10]), the EF % entry is “reversed these effects” and the ESV entry is reported as “reversed these effects”. Moreover, the cardiac output entry in the data set on doxorubicin injured mice [4] (Lapatinib (100 mg/kg oral daily) treated doxorubicin injured mice vs. non-treated control mice) was “No difference”. Besides, in data set [6], the EF % entry is recorded as “reversed these effects”, the “end-diastolic volume (EDV)” value is on record as “reversed these effects”, the “end-systolic volume (ESV)” value is on record as “reversed these effects” and the “heart weight to body weight ratio (HW/BW)” value was “reversed these effects”. Moreover, in data set [6], the “lung to body weight ratio” value is “reversed these effects” and the “relative wall thickness (RWth)” value is listed as “reversed these effects”. Further, the survival in the data set with doxorubicin injured mice [5] (Lapatinib 100 mg/kg oral gavage daily after doxorubicin) is reported as 71%.
